# Data published in PMC10088252.
# Details: 300 mg QD (n=12)
compound,measurement,value
O=C(Nc1ccc(Oc2ccnc3c2CCN3)c(F)c1)c1c[nH]cc(-c2ccc(F)cc2)c1=O,"TRAE Accessory nerve disorder, any grade",1 (8.3) n (%)
same,"TRAE Accessory nerve disorder, grade 3-4",0 n (%)
same,"TRAE Activated partial thromboplastin time prolonged, any grade",1 (8.3) n (%)
same,"TRAE Activated partial thromboplastin time prolonged, grade 3-4",0 n (%)
same,"TRAE Anaemia, any grade",0 n (%)
same,"TRAE Anaemia, grade 3-4",0 n (%)
same,"TRAE Anaesthesia oral, any grade",0 n (%)
same,"TRAE Anaesthesia oral, grade 3-4",0 n (%)
same,"TRAE Arrhythmia, any grade",0 n (%)
same,"TRAE Arrhythmia, grade 3-4",0 n (%)
same,"TRAE Arthralgia, any grade",0 n (%)
same,"TRAE Arthralgia, grade 3-4",0 n (%)
same,"TRAE Asthenia, any grade",0 n (%)
same,"TRAE Asthenia, grade 3-4",0 n (%)
same,"TRAE Blister, any grade",0 n (%)
same,"TRAE Blister, grade 3-4",0 n (%)
same,"TRAE Chest discomfort, any grade",1 (8.3) n (%)
same,"TRAE Chest discomfort, grade 3-4",0 n (%)
same,"TRAE Chronic kidney disease, any grade",0 n (%)
same,"TRAE Chronic kidney disease, grade 3-4",0 n (%)
same,"TRAE Constipation, any grade",2 (16.7) n (%)
same,"TRAE Constipation, grade 3-4",0 n (%)
same,"TRAE Cough, any grade",0 n (%)
same,"TRAE Cough, grade 3-4",0 n (%)
same,"TRAE Decreased Ccr, any grade",2 (16.7) n (%)
same,"TRAE Decreased Ccr, grade 3-4",0 n (%)
same,"TRAE Decreased appetite, any grade",2 (16.7) n (%)
same,"TRAE Decreased appetite, grade 3-4",0 n (%)
same,"TRAE Diarrhoea, any grade",1 (8.3) n (%)
same,"TRAE Diarrhoea, grade 3-4",0 n (%)
same,"TRAE Dizziness, any grade",1 (8.3) n (%)
same,"TRAE Dizziness, grade 3-4",0 n (%)
same,"TRAE Dry mouth, any grade",1 (8.3) n (%)
same,"TRAE Dry mouth, grade 3-4",0 n (%)
same,"TRAE Dysgeusia, any grade",1 (8.3) n (%)
same,"TRAE Dysgeusia, grade 3-4",0 n (%)
same,"TRAE Dyskinesia, any grade",0 n (%)
same,"TRAE Dyskinesia, grade 3-4",0 n (%)
same,"TRAE Dysphonia, any grade",0 n (%)
same,"TRAE Dysphonia, grade 3-4",0 n (%)
same,"TRAE Dyspnoea, any grade",0 n (%)
same,"TRAE Dyspnoea, grade 3-4",0 n (%)
same,"TRAE Electrocardiogram QT prolonged, any grade",1 (8.3) n (%)
same,"TRAE Electrocardiogram QT prolonged, grade 3-4",0 n (%)
same,"TRAE Elevated ALT, any grade",3 (25.0) n (%)
same,"TRAE Elevated ALT, grade 3-4",0 n (%)
same,"TRAE Elevated AST, any grade",2 (16.7) n (%)
same,"TRAE Elevated AST, grade 3-4",0 n (%)
same,"TRAE Elevated D dimer, any grade",0 n (%)
same,"TRAE Elevated D dimer, grade 3-4",0 n (%)
same,"TRAE Elevated GGT, any grade",0 n (%)
same,"TRAE Elevated GGT, grade 3-4",0 n (%)
same,"TRAE Elevated LDH, any grade",0 n (%)
same,"TRAE Elevated LDH, grade 3-4",0 n (%)
same,"TRAE Elevated alpha-HBDH, any grade",0 n (%)
same,"TRAE Elevated alpha-HBDH, grade 3-4",0 n (%)
same,"TRAE Elevated bilirubin, any grade",0 n (%)
same,"TRAE Elevated bilirubin, grade 3-4",0 n (%)
same,"TRAE Elevated blood creatinine, any grade",3 (25.0) n (%)
same,"TRAE Elevated blood creatinine, grade 3-4",0 n (%)
same,"TRAE Elevated creatine phosphokinase, any grade",0 n (%)
same,"TRAE Elevated creatine phosphokinase, grade 3-4",0 n (%)
same,"TRAE Elevated serum urea, any grade",1 (8.3) n (%)
same,"TRAE Elevated serum urea, grade 3-4",0 n (%)
same,"TRAE Elevated troponin, any grade",0 n (%)
same,"TRAE Elevated troponin, grade 3-4",0 n (%)
same,"TRAE Genital rash, any grade",0 n (%)
same,"TRAE Genital rash, grade 3-4",0 n (%)
same,"TRAE Haematuria, any grade",0 n (%)
same,"TRAE Haematuria, grade 3-4",0 n (%)
same,"TRAE Headache, any grade",1 (8.3) n (%)
same,"TRAE Headache, grade 3-4",0 n (%)
same,"TRAE Hyperhidrosis, any grade",0 n (%)
same,"TRAE Hyperhidrosis, grade 3-4",0 n (%)
same,"TRAE Hyperlipidaemia, any grade",0 n (%)
same,"TRAE Hyperlipidaemia, grade 3-4",0 n (%)
same,"TRAE Hypertension, any grade",1 (8.3) n (%)
same,"TRAE Hypertension, grade 3-4",0 n (%)
same,"TRAE Hypoaesthesia oral, any grade",0 n (%)
same,"TRAE Hypoaesthesia oral, grade 3-4",0 n (%)
same,"TRAE Hypocalcaemia, any grade",0 n (%)
same,"TRAE Hypocalcaemia, grade 3-4",0 n (%)
same,"TRAE Hypotension, any grade",1 (8.3) n (%)
same,"TRAE Hypotension, grade 3-4",0 n (%)
